Activity calls are given as the source filed them. The calls are words filed in the database; no cut-off is given here.
Experiments:
Leishmania donovani = assay: Antileishmanial activity against Leishmania donovani MHOM/SD/62/1S-CL2D axenic amastigotes after 72 hrs by tetrazolium dye-based microplate reader method; assay type: functional, organism-based
[1] = Selectivity index, ratio of IC50 for rat L6 cells to IC50 for chloroquine-resistant Plasmodium falciparum K1; assay type: toxicity, cell-based; conditions: read-out: Ratio IC50
[2] = Selectivity index, ratio of IC50 for rat L6 cells to IC50 for Leishmania donovani MHOM/SD/62/1S-CL2D axenic amastigotes; assay type: toxicity, cell-based; conditions: read-out: Ratio IC50
Plasmodium falciparum = assay: Antiplasmodial activity after 48 hrs against chloroquine-resistant Plasmodium falciparum K1 by [3H]hypoxanthine uptake; assay type: functional, organism-based
[3] = Selectivity index, ratio of IC50 for rat L6 cells to IC50 for blood stream form of Trypanosoma brucei rhodesiense STIB900 trypomastigotes; assay type: toxicity, cell-based; conditions: read-out: Ratio IC50
L6 = assay: Cytotoxicity against rat L6 cells after 70 hrs by alamar blue assay; assay type: cell-based; conditions: L6, 70 h
[4] = system: Trypanosoma brucei rhodesiense; assay: Ratio of pentamidine IC50 to compound IC50 for blood stream form of Trypanosoma brucei rhodesiense STIB900 trypomastigotes; assay type: functional
[5] = system: Trypanosoma brucei rhodesiense; assay: Antitrypanosomal activity against Trypanosoma brucei rhodesiense STIB900 in mouse model of acute trypanosomiasis assessed as increase in survival time at 20 mg/kg administered daily for 4 days; assay type: functional, organism-based; set-up: dose 20 mg/kg
[6] = system: Trypanosoma brucei rhodesiense; assay: Antitrypanosomal activity against Trypanosoma brucei rhodesiense STIB900 in mouse model of acute trypanosomiasis assessed as induction of cure at 20 mg/kg administered daily for 4 days; assay type: functional, organism-based; set-up: dose 20 mg/kg
[7] = system: Trypanosoma brucei rhodesiense; assay: Antitrypanosomal activity against blood stream form of Trypanosoma brucei rhodesiense STIB900 trypomastigotes after 70 hrs by alamar blue assay; assay type: functional, organism-based; conditions: STIB900, 70 h

Compound	IC50 (Leishmania donovani) [nM]	selectivity ratio [1]	selectivity ratio [2]	IC50 (Plasmodium falciparum) [nM]	selectivity ratio [3]	IC50 (L6) [nM]	Ratio IC50 [4]	Activity [5]	Activity [6]	IC50 [7] [nM]
c1ccc(OCCCCCCOc2cccc(-c3cc4cc(C5=NCCN5)ccc4o3)c2)cc1	1900	51	1	49	26					
N=C(N)c1ccc(OCCCOc2ccc(-c3cc4ccc(C(=N)N)cc4o3)cc2)cc1	780					8600	8	Active	inactive	25
CC(C)NC(=N)c1ccc2oc(-c3cccc(OCCCCCCOc4ccccc4)c3)cc2c1	7000	40	1	183	6	7400				1160

Reference: ChEMBL document CHEMBL1153541 (J Med Chem, 2009)
